Laboratory results published in patent US20110129450A1, “METHOD OF PROMOTING NEUROGENESIS BY MODULATING SECRETASE ACTIVITIES” (priority 2008, published 2011).
“Also recorded” adds a separate entry of the source.

Key:
[1] = test system: PS1; experiment: Immunoblot of PS1 expression in N2a cells transduced with lentiviral vector; assay type: cell-based, murine; conditions: N2a cells five days following transduction, versus GFP only or irrelevant siRNA; FIG. 6A
Text: PS1 siRNA lentiviruses were verified by immunoblot analysis for the reduction of PS1 protein expression in N2a cells transduced with the lentiviral vector. N2a cells were transduced with the purified shRNA vector preparation followed by immunoblot analysis using anti-PS1 polyclonal antibody (Lazarov et al., 2005, J. Neurosci. 25: 2386-95.). Presenilins undergo cleavage in an alpha helical region of one of the cytoplasmic loops to produce a larger N-terminal (“PS1 NTF”) and a smaller C-terminal fragment which together form part of the functional protein. […] PS1 siRNA 4-11 (lane 1) refers to a different PS1 siRNA construct having the siRNA sequence of 5′ GGACCAACTTGCATTCCAT 3′ (SEQ ID NO:18) under the U6 promoter. The samples in lanes 6 and 7 were brain extracts of transgenic mice harboring PS1HWT (wild type human PS1; lane 6) and PS1ΔE9 (human PS1 with exon 9 deleted; lane 7), both of which served as positive controls for PS1 detection.

[2] = test system: neural stem cells isolated from the SVZ of adult wild type mice; experiment: BrdU proliferation assay of neurosphere cultures treated with ADAM inhibitor; assay type: cell-based; conditions: treated 48 hours, compared to inactive analog GM6001NK; FIG. 3A
Description: The role for α-secretase in regulating proliferation of NSCs was examined. Neurosphere cultures were established from neural stem cells isolated from the SVZ of adult wild type mice. […] Thereafter, cells were pulse-labeled with 5 μM BrdU for 24 hours before fixation in 4% paraformaldehyde (PFA). The fixed cells were incubated with anti-BrdU antibodies and then HRP-conjugated secondary antibodies, followed by incubation with the TMD peroxidase substrate (Pierce Protein Research Products, Thermo Scientific, Rockford, Ill.). Signals were detected using a plate reader at 450-595 nm.

[3] = test system: sAPP; experiment: Immunoblot of sAPP in conditioned media of treated NSC (22C11 antibody); assay type: cell-based, mice; conditions: NSC cultures, versus GM6001NK; FIG. 3B
Text: APPWT CM represents proliferation results of GM6001-treated cells supplemented with APPWT-conditioned media. (B) Immunoblot analysis of sAPP levels in conditioned media from GM6001- and GM6001NK-treated NSC using the 22C11 antibody.
Results were obtained as percentages of BrdU positive cells in GM6001-treated culture over BrdU positive cells in the control culture treated with DMSO (FIG. 3A). […] To examine the possibility that reduced proliferation was a result of reduced levels of sAPP, GM6001-treated cells were supplemented with conditioned media of neurospheres derived from APPWT mice, in which the α-secretase cleavage product sαAPP was present. […] The secretion levels of sAPP were also examined by immunoblot analysis in the conditioned media of GM6001- or GM6001NK-treated cells.

[4] = test system: neurospheres derived from adult mice neural stem cells; experiment: Neurosphere diameter assay of singly dissociated adult NSCs plated for 8 days; assay type: cell-based; conditions: FIG. 4
Text: Both α- and β-secretases can cleave membrane-bound APP and release the secreted form of APP (sAPP). Proteolytic cleavage of APP by α-secretase releases one form of the secreted APP referred to as sαAPP, whereas cleavage of APP by β-secretase releases a C-terminally truncated sAPP referred to as sβAPP. The significance and difference in the functionality of these two forms of sAPP remains elusive. To distinguish the role of the α or β form of sAPP in promoting neural stem cell proliferation, neurospheres derived from adult mice neural stem cells were dissociated to single cells, plated for 8 days, treated with GM6001 or GM6001NK alone, treated with GM6001 and supplemented with conditioned media from neuroblastoma N2a cells expressing wild type APP, or treated with GM6001 and supplemented with conditioned media from 192 Swe N2a cells. Media conditioned by the neuroblastoma N2a was enriched in sαAPP as the wild type APP expressed in these cells was preferentially processed by α-secretase to produce sαAPP. The 192 Swe N2a conditioned medium was enriched in sβAPP as the 192 Swe N2a cells expressing the Swedish mutant form of APP that was preferentially cleaved by β-secretase. See Bogdanovic et al., 2001, Dement Geriatr. Congn. Discord. 12:364-70.

[5] = test system: neurospheres from the SVZ of adult mice; experiment: BrdU proliferation assay of neurospheres (γ-secretase inhibitor or lentiviral siRNA); assay type: cell-based; conditions: 1 μM for 24 hours; FIG. 8A
Description: To further establish that reduced expression of PS1 decreased neural stem cell proliferation and induced neural stem cell differentiation, neurospheres established as described above from the SVZ of adult mice were subject to a proliferation assay following the treatment with the γ-secretase inhibitor L-685,458 (1 μM for 24 hours) (Sigma, St. Louis, Mo.). As a comparison, neurospheres were transduced with lentiviral vectors expressing either IR siRNA or PS1 siRNA. The proliferation assay was performed as follows: lentivirally-transduced neurospheres or γ-secretase inhibitor-treated neurospheres were singly dissociated and cultured (10,000 cells/well) with BrdU for 48 hours. BrdU-labeled cells were fixed in 4% PFA and immunolabeled with anti-BrdU antibodies followed by HRP-conjugated secondary antibodies. Thereafter, the cells were incubated with the TMD peroxidase substrate and read on a plate reader at 450-595 nm. […] Results were presented as a percentage of DMSO-treated NSCs.

[6] = test system: neural stem cells; experiment: Neural stem cell differentiation assay on poly-L-ornithine/laminin; assay type: cell-based, mice
Description: The effects of γ-secretase inhibitor L-685,458 on neural stem cell differentiation was analyzed. Neural stem cells were allowed to differentiate when cultured on glass coverslips coated with 10 μg/mL poly-L-ornithine (Sigma, St. Louis, Mo.) and 5-10 μg/mL laminin (Sigma) in media with 5% fetal bovine serum without EGF and FGF.
γ-secretase inhibitor L-685,458-induced differentiation was further analyzed by immunostaining using antibodies to the astrocyte marker GFAP, and the early neural marker nestin. […] Scale bar=[…] (FIG. 8E, representative GFAP staining is marked with single arrows).
The length of the processes developed from the middle of the soma to the axon tip of GFAP positive cells after two days of L-685,458 treatment was analyzed and the results are shown in FIG. 8G. Twenty four hours after culturing whole neurospheres on laminin, vehicle-treated cultures remained mostly as neurospheres with slight cell differentiation (FIG. 8F, top panels).

Compound: 5′ GGACCAACTTGCATTCCAT 3′ (expressed or natural sequence) [PS1 siRNA 4-11]
- PS1 expression [1]: reduced

Compound: CNC(=O)[C@H](Cc1c[nH]c2ccccc12)NC(=O)[C@@H](CC(=O)NO)CC(C)C [GM6001]
- BrdU immunoreactivity (BrdU positive cells relative to DMSO control) [2]: Reduced BrdU immunoreactivity
- levels of secreted sAPP in conditioned media [3]: reduced
- average diameter of neurospheres [4]: reduced the average diameter of neurospheres

Compound: CC(C)C[C@H](NC(=O)[C@H](Cc1ccccc1)C[C@@H](O)[C@H](Cc1ccccc1)NC(=O)OC(C)(C)C)C(=O)N[C@@H](Cc1ccccc1)C(N)=O [L-685,458]
- BrdU+ immunoreactivity (percentage of DMSO-treated NSCs) [5]: Reduced BrdU+ immunoreactivity; also recorded: reduced neural stem cell proliferation
- GFAP immunostaining ([6]; FIG. 8E): Positive staining of GFAP
- neural progenitor cell differentiation ([6]; differentiation medium, compared to DMSO, FIGS. 8B-8F): induced neural progenitor cell differentiation
- immunostaining for β-tubulin and GFAP ([6]; neurospheres on laminin, FIG. 8F): increased immunostaining for both β-tubulin and GFAP
- differentiation of whole neurospheres cultured on laminin ([6]; twenty four hours on laminin, FIG. 8F): extensive differentiation
- number of differentiated cells ([6]; two-day treatment, compared to control, FIG. 8C): increased number of differentiated cells
- number of GFAP+Nestin+DCX+ cells ([6]; two-day treatment, compared to control, FIG. 8H): dramatically decreased; also recorded: decrease
- number of neurospheres formed from singly-dissociated neurosphere cells ([6]; two-day treatment, compared with control, FIG. 8D): reduced number of neurospheres
